Experimental data published in US7521395B2, “Synergistically acting herbicidal mixtures” (BASF Aktiengesellschaft, priority 2002, dated 2009).

Assays:
Assay in all cases: Herbicidal action, post-emergence treatment, field trial
Assay type in all cases: in vivo
Details in all cases: application rate 1250 g/ha ai, scale 0 = no damage, 100 = complete destruction
Tagetes minuta = system: Tagetes minuta
Description: (§1) The mixtures according to the invention were applied pre- or post-emergence (foliar treatment). The herbicidal compounds of component B and of component C were applied in the formulation in which they are present as commercially available product.
(§2) The herbicidally active compounds of components A), B) and C) were applied in succession or jointly, in the latter case in some cases as a tank mix and in some cases as a readymix, in the form of emulsions, aqueous solutions or suspensions, the vehicle being water (300-400 l/ha). In the case of the field trials, application was effected with the aid of a mobile plot sprayer.
(§3) The test period extended over 3 to 8 weeks, and the stands were also observed at later points in time.
(§4) Damage by the herbicidal compositions was evaluated with reference to a scale of 0% to 100% in comparison with untreated control plots. 0 means no damage and 100 means complete destruction of the plants.
(§5) In these examples, the value E at which only an additive effect of the individual active ingredients is to be expected was calculated by the method of S. R. Colby (Calculating synergistic and antagonistic responses of herbicide combinations, Weeds 15, 20 pp (1967)).
(§6) This was done using the formula
(§7) [formula] where • X=Percentage of the herbicidal action of component X) at an application rate of x; • Y=Percentage of the herbicidal action of component Y) at an application rate of y; • E=expected herbicidal action of component X)+Y) at rates of application x+y (in %).
(§8) If the value observed exceeds the value E calculated in accordance with Colby's formula, then synergism is present.

Sorghum halepense = system: Sorghum halepense
Description: as §1, §2, §3, §4, §5, §6, §7, §8

Anoda cristata = system: Anoda cristata
Description: as §1, §2, §3, §4, §5, §6, §7, §8

Structure (SMILES): CCNc1nc(Cl)nc(NC(C)C)n1 [atrazine]
- Tagetes minuta Damage [%] (Tagetes minuta): 50%
- Sorghum halepense Damage [%] (Sorghum halepense): 10%
- Anoda cristata Damage [%] (Anoda cristata): 70%
